Assay results: patent publication US6001815A, “Depsipeptides containing N-substituted glycine residue” (Nisshin Flour Milling Co., Ltd., priority 1997, dated 1999)
Where a SMILES comes first, the peptide text is derived from it. [ ]: non-standard residue; d: D form. The star is where a group is joined. Fmoc = O=C(OCC1c2ccccc2-c2ccccc21)*; X1 = CCCCCCCCCCCC(CC(=O)O)O*; NBuGly = CCCCNCC(=O)O

Tested on: apolipoprotein E production in Hep G2 cells
Assay: Productivity of apolipoprotein E in Hep G2 cells, determined by enzyme immunoassay
Assay type: cell-based, human
Settings: Hep G2 culture supernatant, methanol control defined as 100
Procedure: It will be shown below that the depsipeptides of the invention may influence upon the productivity of apolipoprotein E in Hep G2 cells, together with the test procedure as used.
First, Hep G2 cells of 1×10^5 cells were suspended in Dulbecco's modified Eagle medium (manufactured by Nissui Seiyaku Co., Ltd.; hereinafter referred to as "D-MEM medium") containing 10% fetal bovine serum and 1 ml each of the suspension was poured into a 24-well tissue culture plate. The cells were cultivated at 37° C. under atmosphere of a mixed gas composed of 5% carbon dioxide and 95% air. […]
It was again washed three times with 300 μl of PBS, 50 μl of the above sample solution (the medium for Hep G2 cells) was added and the mixture was allowed to stand at room temperature for 2 hours. […] The reaction was quenched by the addition of 100 μl of 2N sulfuric acid and absorbance was measured at 490 nm using absorbance at 650 nm as a control. An amount of apolipoprotein E in the present depsipeptide was determined upon the calibration curve drawn up when a commercially available apolipoprotein E (Chemicon Co., Ltd., U.S.A.) was used as a standard.
In the Test Example, the same procedure as described above was carried out except that methanol alone was added instead of the methanolic solution of the depsipeptide of this invention and an apolipoprotein E amount was measured as a control. […]

CCCCCCCCCCCC(CC(=O)O)OC(=O)CN(CCCC)C(=O)CN(CCCC)C(=O)[C@H](CC(=O)O)NC(=O)[C@@H](NC(=O)OCC1c2ccccc2-c2ccccc21)C(C)C (some centres unmarked) [Compound 2] (Fmoc-VD[NBuGly][NBuGly]-X1)
Relative amount of apolipoprotein E (%) (Conc. 1 μM): 256% | Relative amount of apolipoprotein E (%) (Conc. 5 μM): 389%
